Measurements: patent US11000033B2, “Ketone or oxime compound, and herbicide” (NISSAN CHEMICAL CORPORATION, priority 2014, dated 2021)

Assays:
Type in all cases: in vivo
[1] = tested on: Echinochloa crus-galli var. crus-galli; assay: Test Example 5: herbicidal effect by foliage application, plastic box (symbol H); details: 320 g/ha, 3 weeks after application
Method in brief: (§1)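 Greenhouse foliar test: seedlings at 14 days, grown 25° C. to 30° C. in sterilized diluvial soil; compound applied as an aqueous dilution of an emulsion; response read 3 weeks after spraying.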

[2] = tested on: Echinochloa oryzacola Vasing.; assay: Test Example 2: herbicidal activity, application during weed generation in submerged conditions (symbol A); details: Table 23; application herbicide amount 320 g/ha; grade 0-5 by criteria of Test Example 1
Method in brief: (§2)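 Paddy pot test, submerged (4 cm water), alluvial soil, mixed sowing; greenhouse 25–30° C. Emulsion formulation diluted to predetermined rate, applied onto floodwater at 1–2 leaf stage. Visual herbicidal rating at 3 wk post-treatment.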

Amaranthus retroflexus [3] = assay: Test Example 4: herbicidal effect by soil treatment (symbol N); details: 320 g/ha
Method in brief: (§3)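 Seeds were sown in sterilized diluvial soil, covered with about 1.5 cm of soil, and the soil surface was sprayed with a water-diluted emulsion of the compound at a predetermined rate. Plants grew in a greenhouse at 25° C. to 30° C.; effects were scored visually 3 weeks after application.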

transplanted rice plant = assay: Test Example 1: effect on crop, application before weed generation in submerged conditions (symbol a); details: application herbicide amount 320 g/ha
Method in brief: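 Rice at 2.5 leaf stage transplanted into submerged soil (4 cm depth) sown with three weed species; herbicide applied before weed emergence.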

Setaria viridis = assay: Test Example 4: herbicidal effect by soil treatment (symbol G); details: 320 g/ha
Method in brief: as §3

Amaranthus retroflexus [4] = assay: Test Example 5: herbicidal effect by foliage application, plastic box (symbol N); details: 320 g/ha, 3 weeks after application
Method in brief: as §1

Scirpus juncoides [5] = assay: Test Example 1: herbicidal activity, application before weed generation in submerged conditions (symbol B); details: application herbicide amount 320 g/ha
Method in brief: (§4)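 Greenhouse growth at 25–30 °C lasted 3 weeks after treatment, when each weed was graded 0–5 by herbicidal ratio. Treatment was a diluted emulsion applied to the water surface of 4 cm-submerged alluvial soil on the sowing day.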

wheat = assay: Test Example 4: effect on crop by soil treatment (symbol e); details: 320 g/ha
Method in brief: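 Soil-treatment setup: crop and weed seeds were spot-sown into sterilized diluvial soil, then buried beneath approximately 1.5 cm of it, and the boxes were housed in a 25–30° C. greenhouse.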

Apera spica-venti = assay: Test Example 4: herbicidal effect by soil treatment (symbol L); details: 320 g/ha
Method in brief: as §3

[6] = tested on: Echinochloa oryzacola Vasing.; assay: Test Example 1: herbicidal activity, application before weed generation in submerged conditions (symbol A); details: application herbicide amount 320 g/ha
Method in brief: as §4

Scirpus juncoides [7] = assay: Test Example 2: herbicidal activity, application during weed generation in submerged conditions (symbol B); details: Table 23; application herbicide amount 320 g/ha; grade 0-5 by criteria of Test Example 1
Method in brief: as §2

Alopecurus myosuroides = assay: Test Example 5: herbicidal effect by foliage application, plastic box (symbol J); details: 320 g/ha, 3 weeks after application
Method in brief: as §1

Cyperus difformis = assay: Test Example 3: herbicidal effect by foliage application, Wagner pot (symbol E); details: application herbicide amount 320 g/ha
Method in brief: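 Foliar spray of water-diluted emulsion formulation at a predetermined herbicide amount onto 14-day-old plants in flooded alluvial soil (water depth 0.1–0.5 cm), greenhouse 25–30 °C; rice sown alongside. Scored 3 wk post-application on set criteria.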

| Compound | H: Echinochloa crus-galli var. crus-galli, herbicidal effect (criteria 0-5) [1] | Herbicidal effect grade, A: Echinochloa oryzacola Vasing. [2] | N: Amaranthus retroflexus, herbicidal effect grade (Amaranthus retroflexus [3]) | Effect grade on crop, a: transplanted rice plant (transplanted rice plant) | G: Setaria viridis, herbicidal effect grade (Setaria viridis) | N: Amaranthus retroflexus, herbicidal effect (criteria 0-5) (Amaranthus retroflexus [4]) | Herbicidal effect grade, B: Scirpus juncoides (Scirpus juncoides [5]) | e: wheat, effect grade on crop (wheat) | L: Apera spica-venti, herbicidal effect grade (Apera spica-venti) | Herbicidal effect grade, A: Echinochloa oryzacola Vasing. [6] | Herbicidal effect grade, B: Scirpus juncoides (Scirpus juncoides [7]) | J: Alopecurus myosuroides, herbicidal effect (criteria 0-5) (Alopecurus myosuroides) | herbicidal effect on E, grade 0-5 (Cyperus difformis) |
| --- | --- | --- | --- | --- | --- | --- | --- | --- | --- | --- | --- | --- | --- |
| CC(CC1CC(O)=C(c2c(C)cc(C)cc2C)C1=O)=NOCc1ccccc1C(F)(F)F (centres unmarked) [1-116] | 5 (Herbicidal ratio of 90% or more (almost completely withered)) | 2 (Herbicidal ratio of 20% or higher and lower than 40%) | 5 (Herbicidal ratio of 90% or more (almost completely withered)) | 3 (Herbicidal ratio of 40% or higher and lower than 70%) | 3 (Herbicidal ratio of 40% or higher and lower than 70%) | 0 (Herbicidal ratio of 5% or lower (almost no effect)) | 4 (Herbicidal ratio of 70% or higher and lower than 90%) | 0 (Herbicidal ratio of 5% or lower (almost no effect)) | 3 (Herbicidal ratio of 40% or higher and lower than 70%) | 5 (Herbicidal ratio of 90% or more (almost completely withered)) | 3 (Herbicidal ratio of 40% or higher and lower than 70%) | 5 (Herbicidal ratio of 90% or more (almost completely withered)) | 4 (Herbicidal ratio of 70% or higher and lower than 90%) |
| CC(CC1CC(O)=C(c2c(C)cc(C)cc2C)C1=O)=NOCc1cccc(C(F)(F)F)c1 (centres unmarked) [1-117] | 5 (Herbicidal ratio of 90% or more (almost completely withered)) | 4 (Herbicidal ratio of 70% or higher and lower than 90%) | 0 (Herbicidal ratio of 5% or lower (almost no effect)) | 5 (Herbicidal ratio of 90% or more (almost completely withered)) | 5 (Herbicidal ratio of 90% or more (almost completely withered)) | 1 (Herbicidal ratio of 5% or higher and lower than 20%) | 5 (Herbicidal ratio of 90% or more (almost completely withered)) | 0 (Herbicidal ratio of 5% or lower (almost no effect)) | 5 (Herbicidal ratio of 90% or more (almost completely withered)) | 5 (Herbicidal ratio of 90% or more (almost completely withered)) | 3 (Herbicidal ratio of 40% or higher and lower than 70%) | 5 (Herbicidal ratio of 90% or more (almost completely withered)) | 5 (Herbicidal ratio of 90% or more (almost completely withered)) |
| COC(=O)c1ccc(CON=C(C)CC2CC(O)=C(c3c(C)cc(C)cc3C)C2=O)cc1 (centres unmarked) [1-118] | 2 (Herbicidal ratio of 20% or higher and lower than 40%) | 2 (Herbicidal ratio of 20% or higher and lower than 40%) | 0 (Herbicidal ratio of 5% or lower (almost no effect)) | 4 (Herbicidal ratio of 70% or higher and lower than 90%) | 2 (Herbicidal ratio of 20% or higher and lower than 40%) | 0 (Herbicidal ratio of 5% or lower (almost no effect)) | 1 (Herbicidal ratio of 5% or higher and lower than 20%) | 0 (Herbicidal ratio of 5% or lower (almost no effect)) | 3 (Herbicidal ratio of 40% or higher and lower than 70%) | 5 (Herbicidal ratio of 90% or more (almost completely withered)) | 0 (Herbicidal ratio of 5% or lower (almost no effect)) | 4 (Herbicidal ratio of 70% or higher and lower than 90%) | 0 (Herbicidal ratio of 5% or lower (almost no effect)) |
| CC(CC1CC(O)=C(c2c(C)cc(C)cc2C)C1=O)=NOCC(C)Cl (centres unmarked) [1-121] | 5 (Herbicidal ratio of 90% or more (almost completely withered)) | 5 (Herbicidal ratio of 90% or more (almost completely withered)) | 0 (Herbicidal ratio of 5% or lower (almost no effect)) | 5 (Herbicidal ratio of 90% or more (almost completely withered)) | 5 (Herbicidal ratio of 90% or more (almost completely withered)) | 0 (Herbicidal ratio of 5% or lower (almost no effect)) | 5 (Herbicidal ratio of 90% or more (almost completely withered)) | 0 (Herbicidal ratio of 5% or lower (almost no effect)) | 5 (Herbicidal ratio of 90% or more (almost completely withered)) | 5 (Herbicidal ratio of 90% or more (almost completely withered)) | 4 (Herbicidal ratio of 70% or higher and lower than 90%) | 5 (Herbicidal ratio of 90% or more (almost completely withered)) | 4 (Herbicidal ratio of 70% or higher and lower than 90%) |
| CON=C(C)CC1CC(OS(=O)(=O)N(C)C)=C(c2c(C)cc(C)cc2C)C1=O (centres unmarked) [1-122] | 5 (Herbicidal ratio of 90% or more (almost completely withered)) | 5 (Herbicidal ratio of 90% or more (almost completely withered)) | 0 (Herbicidal ratio of 5% or lower (almost no effect)) | 5 (Herbicidal ratio of 90% or more (almost completely withered)) | 3 (Herbicidal ratio of 40% or higher and lower than 70%) | 1 (Herbicidal ratio of 5% or higher and lower than 20%) | 5 (Herbicidal ratio of 90% or more (almost completely withered)) | 0 (Herbicidal ratio of 5% or lower (almost no effect)) | 1 (Herbicidal ratio of 5% or higher and lower than 20%) | 5 (Herbicidal ratio of 90% or more (almost completely withered)) | 5 (Herbicidal ratio of 90% or more (almost completely withered)) | 5 (Herbicidal ratio of 90% or more (almost completely withered)) | 5 (Herbicidal ratio of 90% or more (almost completely withered)) |
